Assay results as given in US11091437B2, “Aryl isonitriles as a new class of antimicrobial compounds” (Purdue Research Foundation, priority 2015, dated 2021).
Values after ≈ are worked out from the molar mass of the structure shown. Where two headings read alike, the source gives them in different places. Blank lines part the entries; values can stand above or below the molecule they belong to.

What was measured:
[1] = tested on: MRSA; assay: MIC by broth microdilution against MRSA, VISA and VRSA strains; assay type: cell-based, Staphylococcus aureus; conditions: for antimicrobial activity (in words): MRSA strains tested
Procedure: The bacterial growth inhibiting activity of these synthetic analogs of hit compound 1 were subsequently evaluated (FIG. 3).
The minimum inhibitory concentration (MIC) of each compound and linezolid was determined against eight different strains of MRSA, VISA, and VRSA using a modified version of the broth microdilution method, outlined by the CLSI. Institute CaLS, Methods for Dilution Antimicrobial Susceptibility Tests for Bacteria That Grow Aerobically—Seventh Edition: Approved Standard M7-A7. 7 ed. Wayne, Pa. 2011. The same analysis was performed with vancomycin against the VISA and VRSA strains tested. A bacterial suspension (˜1 Å˜10^5 CFU/mL) was prepared in Tryptic soy broth (TSB) and then transferred to a microtiter plate. Each agent tested was added (in triplicate) to wells in the first row of the plate and then serially diluted downward.

[2] = tested on: S. aureus exhibiting resistance to vancomycin (VRS2); assay: MIC by broth microdilution against vancomycin-resistant S. aureus; assay type: cell-based; conditions: Staphylococcus aureus; vancomycin-resistant clinical isolate VRS2
[3] = tested on: murine macrophage (J774) cell line; assay: MTS toxicity assay against mammalian cells
[4] = tested on: Caco-2 cell monolayer; conditions: human
[5] = human, microsomes, 1 h
[6] = physchem; conditions: aqueous buffer, kinetic from dmso stock
[7] = tested on: MRSA USA300; assay: whole-cell screening of in house small molecules; assay type: cell-based, Staphylococcus aureus; conditions: MRSA USA300, whole-cell screening hit
Description: A whole-cell screening of a small number of in house generated small molecules with diverse structural skeletons (about 250 molecules) has been conducted against MRSA USA300 with the aim to identify compounds with novel skeletons to target antibiotic drug resistance. […] Marconi, G. G. et al., J. Antibiot, 1978, 31, 27-32; Mo, S. et al., J. Nat. Prod. 2009, 72, 894-899; Raveh, A. et al., J. Nat. Prod. 2007, 70, 196-201; Sugawara, T. et al., J. Antibiot, 1997, 50, 944-948; Fujiwara, A. et al., Agric. Biol. Chem. 1982, 46, 1803-1809, Marquez, J. A. et al., J. Antibiot, 1983, 36, 1101-1108. The novel structural skeleton of compound 1 as an antibacterial compound against drug resistant strains prompted further study of these types of isonitrile compounds. Herein is reported the chemical synthesis, structure-activity relationship study, and evaluation of the antibacterial performance of compound 1 and closely related analogs against several clinically-relevant MRSA and VRSA strains.

[8] = in vitro; conditions: human, Caco-2
[9] = Staphylococcus aureus, broth microdilution, over the MRSA strains tested, read-out: MIC against MRSA

SMILES: [C-]#[N+]c1ccccc1CP(=O)(OCC)OCC [Compound 4a, diethyl (2-isocyanobenzyl)phosphonate]
- MIC ([1]; broth microdilution, over the MRSA strains tested, read-out: MIC against MRSA): > 128 µM

- MIC [2]: 2 to 16 µM (≈ 0.603 to 4.82 µg/mL)
SMILES: [C-]#[N+]c1ccccc1/C=C(\CC)c1ccc(C(F)(F)F)cc1 [Compound 10, (E)-1-isocyano-2-(2-(4-(trifluoromethyl)phenyl)but-1-en-1-yl)benzene]

SMILES: [C-]#[N+]c1ccc(/C=C/c2ccccc2)cc1 [Compound 37, (E)-1-isocyano-4-styrylbenzene]
- activity relative to ortho-substituted compound 13 ([1]; MSSA (NRS72) and MRSA USA500): slight improvement
- toxicity to J774 cells at 128 μM [3]: not toxic

- MIC [1, 9]: 4 to 64 µM (≈ 0.877 to 14 µg/mL)
SMILES: [C-]#[N+]c1ccccc1/C=C/c1ccc(C)cc1 [Compound 23, (E)-1-isocyano-2-(4-methylstyryl)benzene]

- MIC [2]: 2 to 16 µM (≈ 0.412 to 3.3 µg/mL)
SMILES: [C-]#[N+]c1ccc(/C=C/c2cccnc2)cc1 [Compound 32, (E)-3-(4-isocyanostyryl)pyridine]

SMILES: [C-]#[N+]c1ccccc1/C=C/c1ccccn1 [Compound 27, (E)-2-(2-isocyanostyryl)pyridine]
- antimicrobial activity (in words) ([1]; broth microdilution): reduced antimicrobial activities

SMILES: [C-]#[N+]c1ccccc1CCc1ccccc1 [Compound 53, 1-isocyano-2-phenethylbenzene]
- potency relative to compound 13 ([1]; all strains tested except VISA NRS1): less potent
- activity against MRSA USA100, MRSA USA300, MRSA NRS119 and VISA NRS1 ([1]; strains USA100, USA300, NRS119, VISA NRS1): active

SMILES: [C-]#[N+]c1ccccc1C=C1CCCCC1 [Compound 26, 1-(cyclohexylidenemethyl)-2-isocyanobenzene]
- activity against MRSA USA300, MRSA USA500 and MRSA NRS119 ([1]; strains USA300, USA500, NRS119): inactive

- MIC ([1]; Staphylococcus aureus, MRSA, read-out: MIC against most MRSA strains tested): > 128 µM
SMILES: [C-]#[N+]c1ccccc1/C=C/c1ccc(CCCC)cc1 [Compound 24, (E)-1-(4-butylstyryl)-2-isocyanobenzene]

- MIC [2]: 2 to 16 µM (≈ 0.501 to 4 µg/mL)
SMILES: [C-]#[N+]c1ccccc1/C=C/c1ccc([N+](=O)[O-])cc1 [Compound 25, (E)-1-isocyano-2-(4-nitrostyryl)benzene]
- toxicity to J774 cells at 32 μM ([3]; 32 μM): toxic
- toxicity to J774 cells at 64 μM [3]: toxic

- MIC [1, 9]: ≥ 2 µM
- reduction in the MIC against MRSA relative to compound 1 ([1]; removal of the ethyl group of 1): two-to-eight
- apparent permeability Papp, apical (A) to basolateral (B) [4]: 0.0 cm/sec
- apparent permeability Papp, basolateral to apical [4]: 0.0 cm/sec
- parent compound remaining after one hour [5]: 24%
- parent compound remaining after one hour, NADPH not present [5]: 51%
- solubility [6]: 1 to 100 µM (≈ 0.205 to 20.5 µg/mL)
SMILES: [C-]#[N+]c1ccccc1/C=C/c1ccccc1 [Compound 13, (E)-1-isocyano-2-styrylbenzene]
- concentration up to which not toxic to mammalian cells ([3]; J774 cells): 64 µM

SMILES: [C-]#[N+]c1ccccc1/C=C/c1cccc(OC)c1 [Compound 15, (E)-1-isocyano-2-(3-methoxystyryl)benzene]
- toxicity to J774 cells at 128 μM [3]: not toxic

- MIC [2]: 2 to 16 µM (≈ 0.412 to 3.3 µg/mL)
SMILES: [C-]#[N+]c1ccc(/C=C/c2ccncc2)cc1 [Compound 35, (E)-4-(4-isocyanostyryl)pyridine]
- activity relative to ortho- and meta-substituted 33 and 34 ([1]; all the strains tested): much more active

SMILES: [C-]#[N+]c1ccccc1/C=C/c1cccc(F)c1 [Compound 19, (E)-1-(3-fluorostyryl)-2-isocyanobenzene]
- toxicity to J774 cells at 64 μM [3]: toxic

SMILES: [C-]#[N+]c1ccc(C)cc1-c1ccc(C(F)(F)F)cc1 [Compound 50, 2-isocyano-5-methyl-4′(trifluoromethyl)-1,1′-biphenyl]
- antimicrobial activity (in words) ([1]; broth microdilution): loss in antimicrobial activity

SMILES: [C-]#[N+]c1ccccc1/C=C(\CC)c1cccc(C(F)(F)F)c1 [Compound 12]
- toxicity to J774 cells at 64 μM [3]: toxic

SMILES: [C-]#[N+]c1ccccc1/C=C/c1ccncc1 [Compound 33, (E)-4-(2-isocyanostyryl)pyridine]
- antimicrobial activity (in words) ([1]; broth microdilution): reduced antimicrobial activities

SMILES: [C-]#[N+]c1ccccc1/C=C/c1cccnc1 [Compound 30, (E)-3-(2-isocyanostyryl)pyridine]
- antimicrobial activity (in words) ([1]; broth microdilution): reduced antimicrobial activities
- toxicity to J774 cells at 128 μM [3]: not toxic

- MIC [1, 9]: 8 to 64 µM (≈ 1.87 to 14.9 µg/mL)
SMILES: [C-]#[N+]c1ccccc1/C=C(\CC)c1ccccc1 [Compound 1, (E)-1-isocyano-2-(2-phenylbut-1-en-1-yl)benzene]
- concentration inhibiting bacterial growth [7]: 32 µM

- Papp B→A [8]: 27 ×10⁻⁶ cm/s
SMILES: CC(=O)CC(c1ccccc1)c1c(O)c2ccccc2oc1=O (stereo not shown) [warfarin]
